In assay [1] the test system is human pancreatic adenocarcinoma cell line IBF-CP3. The assay is described as follows: Proliferation test by recount of the cells number (hemocytometer), IBF-CP3. The class given is cell-based. As to the method:
In this assay and with the aim of determining whether the presence in the culture medium produces some effect on the growth in vitro of the cell lines, the final number of the cells when the control reaches monolayer is determined, in the presence and in the absence of the inhibitor. The calculation is made by direct recount of the number of cells using trypsinization and subsequent recount in a hemocytometer. The detailed method is as follows:
1. In each of the three culture flasks of 25 cm^2, 5×10^5 cells are seed and a total volume of the culture medium is added (DMEM with a 10% of fetal bovine serum or synthetic serum, according to the test) of 5 mL:
A first flask is used as control and no PCI is added to it.
PCI is added to a second flask some hours after the culture has started and once the cells have adhered to the bottom of the flask. This type of test is defined as postadherence test.
PCI is added to a third flask at the same time as the culture has begun, before the cells have had time to adhere to the bottom of the flask, thus constituting the preadherence test.
2. The cells are maintained in an incubator at 37° C., 87% of relative humidity and 10% of CO2. The medium contained in the flasks is changed every 3-4 days. Medium free of PCI is added to the control flask; medium with PCI is added to the other two.
3. When the culture of one of the flasks reaches a state of monolayer (or after a specific number of days), we proceed to count the number of cells in each one of them. Firstly and in order to do that, the cells are trypsinized using the following steps:
Immediately after, the recount of the number of cells is done. To do that, an aliquot of 10 μL is taken and it is placed in an eppendorf tube. 10 μL of a solution of trypan blue dye is added. Then, it is well mixed and two aliquots of 10 μL of the mixture are taken and placed in the two zones of an hemocytometer which is placed in the inverted microscope.
The live cells are observed as being refringent and clear, while the dead ones are observed as opaque and dyed blue, for the staining is only able to penetrate dead cells. The total number of cells of the W zone of the hemocytometer is counted, differentiating between the live and the dead ones. Based on this recount, the total number of cells that was in the initial suspension (which will be the total number of cells that was in the culture) is calculated by multiplying the number obtained by 2×10^4. The viability (in %) is calculated by dividing the number of live cells by the total number of counted cells and multiplying it by 100.
The effect produced by the presence of PCI in the medium is expressed as % of cell growth inhibition, which is calculated according to the formula [formula] […]

The subject of assay [2] is human pancreatic adenocarcinoma cell line Capan-1. Put plainly: Flow cytometry analysis of cell cycle phases. The class given is cell-based. Particulars: 50 µg/mL of PCI. On the technique in general: A flow cytometer gives signals particle by particle.
The test system of another assay is trypsin. Put plainly: Gene expression analysis by Northern transfer, trypsin probe. Type of assay: cell-based, human. Particulars: for beta counts, Trypsin probe: 12 days, Capan-1 (control 511). As to the method:
To verify whether the PCI plays any role in signal transduction, studies of gene expression were carried out by Northern transfer. The probes were: β2-microglobulin, p53 and trypsin. The β2-microglobulin is a constitutive gene that is used as a sample loading control in the gel. p53 is a transcription factor which, among other functions, controls the state of the genomic DNA and the cell cycle (Bates, S. & Vousden, K. H. (1996) Curr. Opin. Genet. Develop., 6: 12-19). If the DNA is damaged, p53 induces its repair and, if it is excessively damaged, it provokes programmed cellular death (apoptosis). Trypsin is a marker of pancreatic cells of the acinar type. The trypsin is not expressed by all the tumoral cells and it is believed that it is expressed by the cells with metastatic power and/or invasive power (Fernández, E. et al., (1994) Cancer, 73: 2285-2295). The probes employed are described as follows:
In the first place, 3×10^6 cells of the human pancreatic adenocarcinoma cell line Capan-1 were placed in each one of the 12 flasks of 150 cm^2. […] They were maintained in culture for 12 days period, changing their medium every 4 days, adding fresh PCI. Once the treatment was completed, the cells were trypsinized and the sediment of the cells was kept at −80° C. Afterwards, the extraction of the RNA was carried out.
The quantifying of the hybridized filters with the respective probes was done using a Betascope 601 blot Analyzer counter (Betagen, USA). The counting time was 45 min for the hybridized filter with the probe p53 and β2-microglobuline and 2 h for the trypsin probe.
Assuming that the counts of the β2-Microglobuline are an indication of the total amount of poly(A^+) RNA, the data may be standardized as a percentage of counts of the band compared to the β2-microglobuline counts of the same cells, giving a value which depends on the abundance of the specific mRNA in relation to the total of mRNA.

Positions of bridges follow the written chain, without caps; N, C: chain ends. No end group written: not given here.

Regarding “PCI: potato carboxypeptidase inhibitor, isoform IIa, obtained by recombinant DNA techniques in E. coli (SEQ ID NO.2) (EQHADPICNKPCKTHDDCSGAWFCQACWNSARTCGPYVG; disulfide 12-27, 18-34, 8-24)”, the “Percentage of Growth Inhibition” value in assay [1] (5 mg PCI/mL, Postadhesion) worked out at 23.7 ± 19.3%; in assay [1] (5 mg PCI/mL, Preadhesion, DMEM+10%BMS until controls confluent), 20.4 ± 14.2%; in assay [1] (10 mg PCI/mL, Postadhesion), 15.1 ± 8.3%; in assay [1] (10 mg PCI/mL, Preadhesion), 11.6 ± 8.5%. For the same substance, the “% G2 M” value is 4.7% in assay [2] (24 h (control 6.4)), 3.7% in assay [2] (48 h), 4% in assay [2] (72 h) and 3.9% in assay [2] (96 h). The “% S” value is reported as 20.4% in assay [2] (24 h (control 14.3)), 11% in assay [2] (48 h), 10.9% in assay [2] (72 h) and 7.6% in assay [2] (96 h). For the same substance, the “% G1” value in assay [2] (24 h (control 79.2)) was 74.9%; in assay [2] (48 h) it was 85.3%; in assay [2] (72 h), 85.1%; in assay [2] (96 h), 88.5%. Moreover, the “lower transcription of trypsin, inverse quotient (control/treatment)” value is listed as 2.9 times in the assay on trypsin (1 mg/mL PCI) and 7.8 times with trypsin (10 mg/mL PCI). The figures for the “Trypsin/b2 (counts of one band in relation to those of β2-microglobuline)” value in the assay with trypsin (1 mg/mL PCI (control 0.5351)) and in the assay with trypsin (10 mg/mL PCI (control 0.5351)) were 0.1814 and 0.0687, respectively. Further, the “beta counts, Trypsin probe” value in the assay with trypsin (1 mg/mL PCI) is 396; in the assay on trypsin (10 mg/mL PCI), 432.

For the origin of these results see patent US6379959B1, “Metalocarboxypeptidase inhibitors and derived molecules used as antitumor agents” (Universitat Autonoma de Barcelona, priority 1996, dated 2002).
